Experimental data taken from ChEMBL document CHEMBL1201862, “PubChem BioAssay data set” (2004).
Calls of active or inactive are those of the source.

Assays:
[1] = Trypanosoma cruzi growth suppression in host cells – NIH3T3 host cells, beta-gal luminescence, confirmation (AID 2044); assay type: functional, cell-based;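 also: intracellular parasites grown in NIH/3T3 mouse fibroblasts as host cells; luminescent beta-galactosidase reporter signal from transgenic T. cruzi replicating inside host cells; inhibitors lower the luminescence signal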
cells = assay type: functional
[2] = Vero E6 cell cytotoxicity, dose response, cytotoxicity control for non-replicating M. tuberculosis project, secondary assay (AID 492998); assay type: functional, VeroE6; details: Vero C1008
[3] = NIH3T3 cell viability loss – ATP luminescence, mouse fibroblasts, counter-screen, dose response (AID 2010); assay type: functional, cell-based;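 also: cells exposed to compound for about 90 hours before reading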
[4] = THP-1 cell cytotoxicity, dose response, cytotoxicity control for non-replicating M. tuberculosis project (AID 489025); assay type: functional
[5] = microbe, parasite or virus in culture; assay type: functional; details: Mycobacterium tuberculosis
[6] = HepG2 cell cytotoxicity, dose response, cytotoxicity control for non-replicating M. tuberculosis project (AID 489018); assay type: functional; details: Mycobacterium tuberculosis
[7] = target: Peroxisome proliferator-activated receptor gamma/Nuclear receptor coactivator 3 (Homo sapiens, UniProt P37231); assay: (§1) TR-FRET dose response biochemical High Throughput Screening assay for agonists of the steroid receptor coactivator 3 (SRC-3) recruitment by the peroxisome proliferator-activated receptor gamma (PPAR gamma): non-selective agonists. [Related pubchem assays: 1301 (Confirmation screen.), 1048 (Primary screen.)]; assay type: functional
Peroxisome proliferator-activated receptor gamma/Nuclear receptor coactivator 3, sequence (P37231 whole entry): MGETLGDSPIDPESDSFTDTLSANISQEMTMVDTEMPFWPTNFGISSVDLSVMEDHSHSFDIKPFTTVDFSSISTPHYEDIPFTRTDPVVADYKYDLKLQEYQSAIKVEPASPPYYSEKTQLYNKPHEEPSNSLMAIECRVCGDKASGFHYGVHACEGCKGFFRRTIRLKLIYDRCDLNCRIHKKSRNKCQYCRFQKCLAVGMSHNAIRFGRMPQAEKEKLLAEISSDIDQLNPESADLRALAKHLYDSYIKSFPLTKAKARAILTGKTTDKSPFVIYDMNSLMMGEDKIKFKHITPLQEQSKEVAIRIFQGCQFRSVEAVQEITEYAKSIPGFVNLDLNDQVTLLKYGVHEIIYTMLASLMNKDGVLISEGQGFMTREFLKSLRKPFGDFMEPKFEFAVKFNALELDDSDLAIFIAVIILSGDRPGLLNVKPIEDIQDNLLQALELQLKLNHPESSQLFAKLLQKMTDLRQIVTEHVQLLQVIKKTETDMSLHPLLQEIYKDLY
Peroxisome proliferator-activated receptor gamma/Nuclear receptor coactivator 3, sequence (Q9Y6Q9 whole entry, further chain): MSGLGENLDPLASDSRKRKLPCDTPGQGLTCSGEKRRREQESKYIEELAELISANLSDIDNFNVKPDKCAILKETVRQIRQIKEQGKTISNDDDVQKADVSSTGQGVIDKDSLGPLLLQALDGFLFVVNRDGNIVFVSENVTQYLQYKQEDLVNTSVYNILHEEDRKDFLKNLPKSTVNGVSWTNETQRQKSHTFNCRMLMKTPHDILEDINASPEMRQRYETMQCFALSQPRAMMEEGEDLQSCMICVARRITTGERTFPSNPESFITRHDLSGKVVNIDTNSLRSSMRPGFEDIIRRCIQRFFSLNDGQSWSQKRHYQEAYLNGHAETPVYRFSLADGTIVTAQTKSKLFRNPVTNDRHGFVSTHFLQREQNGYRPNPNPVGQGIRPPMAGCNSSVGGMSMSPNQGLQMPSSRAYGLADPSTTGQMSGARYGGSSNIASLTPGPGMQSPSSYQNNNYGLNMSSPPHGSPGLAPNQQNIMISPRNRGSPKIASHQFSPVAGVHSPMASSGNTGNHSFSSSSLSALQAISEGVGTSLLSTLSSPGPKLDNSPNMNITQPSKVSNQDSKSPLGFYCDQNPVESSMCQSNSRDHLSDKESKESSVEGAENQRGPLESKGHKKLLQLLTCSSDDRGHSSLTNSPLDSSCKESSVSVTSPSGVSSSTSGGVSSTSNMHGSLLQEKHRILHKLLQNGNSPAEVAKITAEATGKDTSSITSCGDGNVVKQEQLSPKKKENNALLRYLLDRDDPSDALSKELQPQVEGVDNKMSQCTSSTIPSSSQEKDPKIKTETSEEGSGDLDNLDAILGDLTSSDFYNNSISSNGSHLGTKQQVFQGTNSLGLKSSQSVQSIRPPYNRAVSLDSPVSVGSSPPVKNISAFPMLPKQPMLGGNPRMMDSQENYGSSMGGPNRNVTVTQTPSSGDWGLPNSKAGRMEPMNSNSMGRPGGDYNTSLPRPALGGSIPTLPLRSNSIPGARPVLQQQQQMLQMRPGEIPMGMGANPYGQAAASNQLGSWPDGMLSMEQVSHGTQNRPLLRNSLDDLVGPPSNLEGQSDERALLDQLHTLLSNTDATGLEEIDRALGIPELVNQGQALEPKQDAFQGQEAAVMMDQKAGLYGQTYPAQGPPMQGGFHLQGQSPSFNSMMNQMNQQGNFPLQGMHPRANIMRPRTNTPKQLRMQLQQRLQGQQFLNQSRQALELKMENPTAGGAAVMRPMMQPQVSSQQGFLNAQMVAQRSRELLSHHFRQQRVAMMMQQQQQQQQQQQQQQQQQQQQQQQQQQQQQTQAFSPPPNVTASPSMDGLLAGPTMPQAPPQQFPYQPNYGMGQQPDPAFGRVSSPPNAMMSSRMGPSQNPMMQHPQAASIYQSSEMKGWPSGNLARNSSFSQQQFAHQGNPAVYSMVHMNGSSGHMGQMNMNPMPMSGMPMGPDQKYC

[8] = target: Peroxisome proliferator-activated receptor gamma/Nuclear receptor coactivator 1 (Homo sapiens, UniProt P37231); assay: as §1, with “1 (SRC-1)” for “3 (SRC-3)”, “assays (depositor defined):AID1300, AID1808, AID504735, AID631]” for “assays: 1301 (Confirmation screen.), 1048 (Primary screen.)]”; assay type: protein assay
Peroxisome proliferator-activated receptor gamma/Nuclear receptor coactivator 1, sequence (P37231 whole entry): as the sequence (P37231 whole entry) above
Peroxisome proliferator-activated receptor gamma/Nuclear receptor coactivator 1, sequence (Q15788 whole entry, further chain): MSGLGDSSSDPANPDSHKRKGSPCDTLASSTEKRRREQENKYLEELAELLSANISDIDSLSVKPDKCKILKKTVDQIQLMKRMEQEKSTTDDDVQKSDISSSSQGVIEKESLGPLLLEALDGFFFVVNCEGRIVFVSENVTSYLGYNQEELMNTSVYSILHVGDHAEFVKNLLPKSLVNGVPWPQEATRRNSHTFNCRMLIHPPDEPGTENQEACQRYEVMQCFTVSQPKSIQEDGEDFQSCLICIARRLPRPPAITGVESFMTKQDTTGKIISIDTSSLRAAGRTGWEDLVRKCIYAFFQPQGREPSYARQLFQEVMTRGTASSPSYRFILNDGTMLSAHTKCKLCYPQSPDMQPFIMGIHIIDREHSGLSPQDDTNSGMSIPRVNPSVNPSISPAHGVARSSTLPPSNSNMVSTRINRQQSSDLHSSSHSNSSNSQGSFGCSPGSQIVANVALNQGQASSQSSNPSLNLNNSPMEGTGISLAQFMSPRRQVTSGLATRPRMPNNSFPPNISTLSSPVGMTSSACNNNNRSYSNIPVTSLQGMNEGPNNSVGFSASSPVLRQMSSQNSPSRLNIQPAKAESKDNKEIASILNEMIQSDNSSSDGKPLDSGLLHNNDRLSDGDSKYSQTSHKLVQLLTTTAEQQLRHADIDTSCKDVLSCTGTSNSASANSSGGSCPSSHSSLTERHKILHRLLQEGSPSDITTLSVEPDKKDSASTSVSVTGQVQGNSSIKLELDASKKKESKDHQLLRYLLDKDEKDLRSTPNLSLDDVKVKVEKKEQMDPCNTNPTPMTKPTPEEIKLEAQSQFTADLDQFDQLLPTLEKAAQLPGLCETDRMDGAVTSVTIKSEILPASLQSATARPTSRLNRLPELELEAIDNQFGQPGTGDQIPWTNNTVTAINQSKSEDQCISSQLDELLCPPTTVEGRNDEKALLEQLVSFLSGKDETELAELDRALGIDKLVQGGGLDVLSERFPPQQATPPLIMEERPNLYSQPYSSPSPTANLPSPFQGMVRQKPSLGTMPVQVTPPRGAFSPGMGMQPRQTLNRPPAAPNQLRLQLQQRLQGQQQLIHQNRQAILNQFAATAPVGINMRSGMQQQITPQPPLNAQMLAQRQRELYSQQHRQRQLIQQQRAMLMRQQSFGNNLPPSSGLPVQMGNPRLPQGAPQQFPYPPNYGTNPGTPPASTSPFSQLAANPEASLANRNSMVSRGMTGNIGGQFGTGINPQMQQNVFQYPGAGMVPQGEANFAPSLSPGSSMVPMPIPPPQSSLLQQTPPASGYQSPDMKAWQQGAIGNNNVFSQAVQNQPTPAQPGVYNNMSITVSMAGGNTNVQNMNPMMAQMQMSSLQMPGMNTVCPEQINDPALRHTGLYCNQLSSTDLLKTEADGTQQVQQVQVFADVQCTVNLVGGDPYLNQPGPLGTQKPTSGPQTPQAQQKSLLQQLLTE

[9] = target: Peroxisome proliferator-activated receptor gamma/Nuclear receptor coactivator 2 (Homo sapiens, UniProt P37231); assay: TR-FRET dose response biochemical High Throughput Screening assay for agonists of the steroid receptor coactivator 2 (SRC-2) recruitment by the peroxisome proliferator-activated receptor gamma (PPAR gamma): non-selective agonists. [Related pubchem assays: 1297, 1032 ]; assay type: functional
Coagulation factor XII = target: T1, Coagulation factor XII (Homo sapiens, UniProt P00748); assay type: functional;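 also: activated factor XIIa alpha cleaving a fluorogenic AMC peptide substrate; inhibitor potency from loss of enzyme activity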
T1 sequence (P00748 whole entry): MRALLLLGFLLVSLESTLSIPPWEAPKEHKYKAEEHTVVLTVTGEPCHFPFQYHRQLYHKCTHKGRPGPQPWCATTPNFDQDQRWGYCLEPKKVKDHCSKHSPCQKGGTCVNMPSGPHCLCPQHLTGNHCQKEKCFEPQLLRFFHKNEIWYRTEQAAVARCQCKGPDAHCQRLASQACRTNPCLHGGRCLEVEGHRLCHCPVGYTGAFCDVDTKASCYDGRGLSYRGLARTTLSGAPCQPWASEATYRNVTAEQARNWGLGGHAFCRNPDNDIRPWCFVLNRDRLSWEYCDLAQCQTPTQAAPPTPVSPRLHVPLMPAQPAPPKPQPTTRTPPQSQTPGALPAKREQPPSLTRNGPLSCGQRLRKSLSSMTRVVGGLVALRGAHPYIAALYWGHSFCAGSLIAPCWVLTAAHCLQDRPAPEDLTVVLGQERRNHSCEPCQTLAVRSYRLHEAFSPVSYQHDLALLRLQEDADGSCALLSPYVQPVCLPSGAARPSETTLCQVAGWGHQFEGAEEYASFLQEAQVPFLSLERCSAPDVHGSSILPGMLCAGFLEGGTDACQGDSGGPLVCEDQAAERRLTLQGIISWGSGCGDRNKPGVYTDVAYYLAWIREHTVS

[10] = target: T2, RNA-binding protein pos-1 (Caenorhabditis elegans, UniProt G5EF15); assay: disruptors of C. elegans POS-1 RNA interaction – biochemical, fluorescence polarization, dose response (AID 1964);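 also: purified POS-1 fused to maltose binding protein made in E. coli; potency of compounds blocking POS-1 binding to fluorescent RNA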
T2 sequence (G5EF15 whole entry): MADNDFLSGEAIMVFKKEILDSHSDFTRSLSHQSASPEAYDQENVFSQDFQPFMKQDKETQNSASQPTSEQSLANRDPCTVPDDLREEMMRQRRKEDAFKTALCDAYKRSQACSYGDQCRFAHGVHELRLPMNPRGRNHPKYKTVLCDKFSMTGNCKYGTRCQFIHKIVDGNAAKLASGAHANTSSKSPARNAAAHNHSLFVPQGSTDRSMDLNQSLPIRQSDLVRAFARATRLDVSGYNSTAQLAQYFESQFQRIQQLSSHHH

[11] = target: T3, Zinc finger protein mex-5 (Caenorhabditis elegans, UniProt Q9XUB2); assay: potency of MEX-5 RNA-binding blockers – biochemical, C. elegans, fluorescence polarization, dose response (AID 1960)
T3 sequence (Q9XUB2 whole entry): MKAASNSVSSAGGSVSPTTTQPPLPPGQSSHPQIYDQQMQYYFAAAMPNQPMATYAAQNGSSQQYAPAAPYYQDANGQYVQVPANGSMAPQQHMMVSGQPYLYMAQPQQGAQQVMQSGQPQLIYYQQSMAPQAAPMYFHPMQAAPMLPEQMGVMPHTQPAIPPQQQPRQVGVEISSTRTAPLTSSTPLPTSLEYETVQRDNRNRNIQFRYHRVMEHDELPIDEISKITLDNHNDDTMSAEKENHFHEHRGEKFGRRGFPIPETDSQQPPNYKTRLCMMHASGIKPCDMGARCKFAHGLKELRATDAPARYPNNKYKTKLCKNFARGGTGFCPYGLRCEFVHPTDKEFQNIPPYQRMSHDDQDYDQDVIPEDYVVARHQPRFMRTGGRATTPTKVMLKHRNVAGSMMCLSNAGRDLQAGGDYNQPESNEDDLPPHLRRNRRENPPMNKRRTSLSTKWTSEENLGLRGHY

Beta-galactosidase = Beta-galactosidase (Escherichia coli, UniProt Q8VNN2); assay: detection-enzyme interference by beta-gal modulators – biochemical, E. coli enzyme, set 3, artefact control for CCR6 antagonist project, dose response (AID 504712); assay type: functional
[12] = target: T4, Luciferin 4-monooxygenase (Photinus pyralis, UniProt P08659); assay: inhibition of purified Photinus pyralis luciferase – biochemical, luminescence, dose response (AID 1891)
T4 sequence (P08659 whole entry): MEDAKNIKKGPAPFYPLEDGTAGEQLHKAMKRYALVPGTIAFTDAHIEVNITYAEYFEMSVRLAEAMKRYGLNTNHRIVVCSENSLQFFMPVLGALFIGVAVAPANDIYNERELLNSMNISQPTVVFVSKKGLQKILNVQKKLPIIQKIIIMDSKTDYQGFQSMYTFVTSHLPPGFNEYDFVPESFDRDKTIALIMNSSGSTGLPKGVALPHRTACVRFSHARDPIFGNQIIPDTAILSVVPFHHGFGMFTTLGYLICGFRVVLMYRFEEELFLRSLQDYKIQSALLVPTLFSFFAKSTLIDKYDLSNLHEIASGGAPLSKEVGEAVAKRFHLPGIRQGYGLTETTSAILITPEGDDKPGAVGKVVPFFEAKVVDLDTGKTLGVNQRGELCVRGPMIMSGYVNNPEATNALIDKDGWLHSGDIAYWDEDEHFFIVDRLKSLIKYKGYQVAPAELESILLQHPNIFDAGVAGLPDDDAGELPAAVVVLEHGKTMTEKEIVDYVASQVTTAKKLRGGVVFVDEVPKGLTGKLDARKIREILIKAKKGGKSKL

[13] = Luminescence Cell-Based Dose Confirmation HTS to Identify Inhibitors of Platelet Dense Granule Release. [Related pubchem assays: 1663 (Primary HTS), 1678 (Summary of Project)]; assay type: functional
Aminopeptidase N = target: T5, Aminopeptidase N (Plasmodium falciparum FcB1/Columbia, UniProt O96935); assay: malaria alanyl aminopeptidase activity blockers – biochemical, fluorogenic H-Leu-NHMec substrate, 1536-well (AID 1445); parameters: species or system Plasmodium falciparum 3D7, 3D7
T5 sequence (O96935 whole entry): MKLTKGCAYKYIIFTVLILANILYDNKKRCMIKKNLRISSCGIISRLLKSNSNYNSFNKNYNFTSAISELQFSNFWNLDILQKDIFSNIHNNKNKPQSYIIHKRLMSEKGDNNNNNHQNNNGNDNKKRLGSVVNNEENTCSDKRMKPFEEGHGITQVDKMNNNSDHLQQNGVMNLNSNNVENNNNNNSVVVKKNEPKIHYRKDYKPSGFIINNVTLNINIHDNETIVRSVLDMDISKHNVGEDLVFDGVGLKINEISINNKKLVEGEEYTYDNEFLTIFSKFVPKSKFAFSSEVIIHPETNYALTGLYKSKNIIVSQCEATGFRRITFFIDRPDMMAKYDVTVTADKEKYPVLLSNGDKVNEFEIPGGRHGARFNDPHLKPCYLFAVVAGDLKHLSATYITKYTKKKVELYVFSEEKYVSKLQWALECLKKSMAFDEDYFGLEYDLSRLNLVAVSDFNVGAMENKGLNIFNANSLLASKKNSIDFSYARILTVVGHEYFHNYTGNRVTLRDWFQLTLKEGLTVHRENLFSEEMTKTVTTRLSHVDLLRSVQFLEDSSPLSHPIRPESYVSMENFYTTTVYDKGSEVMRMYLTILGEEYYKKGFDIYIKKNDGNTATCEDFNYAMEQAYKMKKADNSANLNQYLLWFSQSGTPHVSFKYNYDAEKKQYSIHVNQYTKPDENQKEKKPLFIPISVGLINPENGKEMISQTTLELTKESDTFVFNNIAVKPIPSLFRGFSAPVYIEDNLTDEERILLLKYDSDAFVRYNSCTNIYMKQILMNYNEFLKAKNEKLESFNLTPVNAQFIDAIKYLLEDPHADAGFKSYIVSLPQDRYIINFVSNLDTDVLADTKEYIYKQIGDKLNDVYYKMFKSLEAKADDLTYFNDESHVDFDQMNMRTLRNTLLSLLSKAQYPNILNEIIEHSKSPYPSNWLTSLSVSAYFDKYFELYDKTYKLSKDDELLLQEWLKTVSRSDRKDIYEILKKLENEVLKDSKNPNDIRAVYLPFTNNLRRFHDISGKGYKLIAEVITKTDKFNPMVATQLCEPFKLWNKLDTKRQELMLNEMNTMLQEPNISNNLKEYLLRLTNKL

[14] = target: T6, Rac GTPase-activating protein 1 (Homo sapiens, UniProt Q9H0H5); assay: blockers of MgcRacGAP-driven Rac1 GTP hydrolysis – biochemical, ADP Hunter fluorescence, primary and confirmatory, confirmation (AID 624330); assay type: functional
T6 sequence (Q9H0H5 whole entry): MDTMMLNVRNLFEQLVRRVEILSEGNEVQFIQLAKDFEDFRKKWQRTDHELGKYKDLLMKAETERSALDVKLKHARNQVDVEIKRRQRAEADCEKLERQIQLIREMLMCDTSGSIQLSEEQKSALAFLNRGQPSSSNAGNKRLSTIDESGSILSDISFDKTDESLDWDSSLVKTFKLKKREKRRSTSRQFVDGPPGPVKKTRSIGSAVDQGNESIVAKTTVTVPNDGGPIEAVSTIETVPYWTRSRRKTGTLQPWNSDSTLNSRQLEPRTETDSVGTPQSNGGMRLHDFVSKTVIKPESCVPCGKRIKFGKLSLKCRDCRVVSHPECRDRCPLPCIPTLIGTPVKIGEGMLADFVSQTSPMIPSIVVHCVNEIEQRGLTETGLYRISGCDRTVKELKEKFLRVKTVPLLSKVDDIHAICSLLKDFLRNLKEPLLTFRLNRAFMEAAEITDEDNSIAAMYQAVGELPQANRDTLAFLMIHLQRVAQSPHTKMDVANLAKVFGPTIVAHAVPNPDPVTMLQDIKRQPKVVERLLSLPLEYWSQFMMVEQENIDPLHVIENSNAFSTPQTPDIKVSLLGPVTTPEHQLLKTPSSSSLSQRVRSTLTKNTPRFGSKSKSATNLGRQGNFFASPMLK

HT-1080 = assay: HT1080 cell viability loss – fluorescence readout (AID 620); assay type: functional, cell-based; details: Homo sapiens
[15] = target: T4, Luciferin 4-monooxygenase; assay: Counter Screen for Luciferase-based Assay Positives. [Related pubchem assays: 620, 618, 411 ]

SMILES: Cc1ccc(NC(=O)COc2ccccc2CNC(C)(C)CC(C)(C)C)cc1
- EC50 [1]: 1.36 µM (active)
- IC50 (cells): 13.4 µM (active)
- CC50 [2]: 15.7 µM (active)
- EC50 [3]: 8.6 µM (active)
- CC50 [4]: 18.9 µM (active)
- CC50 [5]: 23.4 µM (active)
- CC50 [6]: 13.8 µM (active)

SMILES: CCn1c(=O)cc(SCC(=O)Nc2cccc(SC)c2)c2ccccc21
- EC50 [7]: > 79.4 µM (not active)
- EC50 [8]: 69.8 µM (inactive)
- EC50 [9]: > 26.5 µM (not active)

SMILES: Cc1cc(Nc2ccc(C)c(C)c2)n2nc(C)nc2n1
- IC50 (Coagulation factor XII): > 50 µM (inactive)

SMILES: Cc1nnc(N2C(=O)C(O)=C(C(=O)c3ccco3)C2c2ccc(F)cc2)s1 (stereo not drawn)
- EC50 [10]: 34.2 µM (active)
- EC50 [7]: > 79.4 µM (not active)
- EC50 [8]: > 79.4 µM (inactive)
- EC50 [11]: 32.9 µM (active)
- EC50 [9]: 27 µM (not active)

SMILES: CN1C(=O)C(c2c(O)[nH]c3ccccc23)=NC1=S
- IC50 (Beta-galactosidase): > 66.6 µM (inactive)

SMILES: Cc1cc(C)c2ccc(/C=N/O)nc2c1O
- IC50 (cells): 4.25 µM (active)
- CC50 [2]: 19.5 µM (active)
- CC50 [4]: 22.9 µM (active)
- CC50 [6]: > 20 µM (active)

SMILES: Nc1ccc(-c2nc3ccc(N)cc3o2)cc1
- EC50 [12]: 20.1 µM (active)
- EC50 [13]: 25 µM (active)
- IC50 (Aminopeptidase N): 26.2 µM (active)
- IC50 [14]: 47.8 µM (active)
- EC50 (HT-1080): > 50 µM (not active)
- EC50 [15]: 6.3 µM (active)

SMILES: Nn1c(C2CCCCC2)nc2ccccc2c1=O
- IC50 (Coagulation factor XII): > 50 µM (inactive)
